According to patent US20250340537A1, “PHARMACEUTICALLY ACTIVE COMPOUNDS, COMPOSITIONS, AND METHODS FOR MODULATING PENDRIN” (ARBORMED Co., Ltd., priority 2022, published 2025):

Legend:
H723R-pendrin = molecular target: T1, H723R-pendrin (Homo sapiens, UniProt O43511, H723R); experiment: PTI assay (Cl−/HCO3− exchange activity); assay type: cell-based; details: PANC-1 cells, BCECF pHi
T1 construct: expressed in transfected cells; host or cells: PANC-1
T1 sequence (O43511 1-780 H723R): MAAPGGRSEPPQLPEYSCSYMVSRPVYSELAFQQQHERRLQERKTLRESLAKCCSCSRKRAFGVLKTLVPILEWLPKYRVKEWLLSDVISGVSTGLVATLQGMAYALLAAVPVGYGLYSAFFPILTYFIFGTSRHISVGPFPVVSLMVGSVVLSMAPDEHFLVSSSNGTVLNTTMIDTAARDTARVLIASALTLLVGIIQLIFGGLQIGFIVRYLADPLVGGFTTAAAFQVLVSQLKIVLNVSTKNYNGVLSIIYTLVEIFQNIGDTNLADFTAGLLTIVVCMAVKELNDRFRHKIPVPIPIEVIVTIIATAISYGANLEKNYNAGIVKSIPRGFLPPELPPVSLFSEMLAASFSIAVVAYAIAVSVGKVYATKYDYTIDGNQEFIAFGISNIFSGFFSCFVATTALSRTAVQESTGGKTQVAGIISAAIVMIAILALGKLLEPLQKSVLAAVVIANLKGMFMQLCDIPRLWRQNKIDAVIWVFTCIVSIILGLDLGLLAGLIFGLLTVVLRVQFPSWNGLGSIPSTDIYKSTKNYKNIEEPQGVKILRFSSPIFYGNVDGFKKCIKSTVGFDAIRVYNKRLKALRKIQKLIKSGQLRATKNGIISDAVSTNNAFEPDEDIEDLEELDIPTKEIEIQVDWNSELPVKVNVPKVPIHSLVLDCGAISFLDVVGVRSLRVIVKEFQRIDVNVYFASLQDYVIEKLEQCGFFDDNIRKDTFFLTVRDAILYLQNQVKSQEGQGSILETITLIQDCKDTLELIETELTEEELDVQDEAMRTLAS
Experimental: Measurements of intracellular pH (pHi) in PANC-1 cells were performed with the pH-sensitive fluorescent probe 2′,7′-bis-(2-carboxyethyl)-5-(and-6)-carboxyfluorescein (BCECF) according to previously reported protocols. Briefly, cells were incubated with 2 μM BCECF acetoxy-methylester for 5 min and then perfused with a HCO3^−-buffered solution [containing 120 mM NaCl, 5 mM KCl, 1 mM MgCl2, 1 mM CaCl2, 10 mM d-glucose, 5 mM Hepes, and 25 mM NaHCO3 (pH 7.4)].
BCECF fluorescence was recorded at excitation wavelengths of 490 and 440 nm at a resolution of 2/s on a recording setup. The Cl^−/HCO3^− exchange activities were estimated from the initial rate of pHi increase as a result of Cl^− removal from the HCO3^−-containing buffer (25 mM HCO3^− with 5% CO2).
The pHi calibration was performed with standard pH solutions containing 150 mM KCl and 5 μM nigericin. The intrinsic buffer capacity (βi) was calculated by measuring ΔpHi in response to 5 to 40 mM NH4Cl pulses in Na^+-free solutions. Because the βi values were not substantially affected by transfection with the plasmids encoding for WT-pendrin or H723R-pendrin, the Cl^−/HCO3^− exchange activities were expressed as ΔpH unit/min without compensating for the buffer capacity.
It is indicated as exchange % with the following key: A=Exchange % greater than 50%; B=Exchange % less than 50%.

H723R-hPDS = molecular target: T2, H723R-hPDS (Homo sapiens, UniProt O43511, H723R); experiment: Surface biotinylation assay; assay type: cell-based; details: Panc1 hPDS-H723R cells, 24 h treatment
T2 construct: expressed in transfected cells; host or cells: Panc1 (Panc1^hPDS-H723R)
T2 sequence (O43511 1-780 H723R): T1 sequence (O43511 1-780 H723R)
Source text: Surface biotinylation is a commonly used technique to specifically isolate plasma membrane proteins using a modified biotin in a form that is easy to bind with proteins. Sulfo-NHS-SS-biotin is a generally used reagent in surface biotinylation due to its impermeability and water solubility. In cool conditions, the extracellular domain of membrane proteins is covalently binding with the reactive biotin ester. These proteins are separated from the whole lysate via a biotin-streptavidin response. In this process, we can validate the increasing rate of the expression level of mutant pendrin in the plasma membrane.
Panc1^parental, Panc1^hPDS-WT and Panc1^hPDS-H723R cells were cultured in high glucose DMEM medium supplemented with 10% fetal bovine serum and 1% antibiotics. 24 hours after seeding in 6-well plates, cells were treated as indicated for 24 h. Cells were washed in PBS and incubated on ice with 0.3 mg/ml biotin in PBS. After 35 min, 1% BSA in PBS, D.W mixture (1:1) was added to cells, and cells were incubated for 10 min. Cells were washed and lysed in lysis buffer. The lysates were sonicated for 20 seconds, and not boiled. After centrifugated, the supernatants were collected and quantified via BCA analysis. The quantified supernatants were added to 10% avidin beads in PBS and incubated overnight at 4° C. After incubation, the below steps were repeated 4 times: i) centrifugation, ii) removing the supernatant, iii) washing with lysis buffer. After the last centrifugation and removing the supernatant, the sample buffer mixed with reducing buffer was added to biotin-avidin mixtures. The elution was accomplished in the 38° C. bioshaker for 40 min and the supernatant was collected. The supernatant was separated by SDS-PAGE and transferred to an Immobilon membrane. After incubation in 5% BSA solution to prevent nonspecific binding, the membrane was incubated with specific antibodies overnight. Then, the membrane was washed with TBST buffer and incubated with HRP-conjugated anti-rabbit or -mouse antibody for 1 hour. The ECL buffer and iBright were used for the visualization of protein bands. The respective protein band intensity was quantified by densitometric analysis using the NIH ImageJ program.
It is indicated as expression % with the following key: A=Expression % greater than 100%; B=Expression % greater than 50%, but less than 100%; C=Expression % less than 50%.

Compound: NC1=C(c2cncc(-c3ccc(O)c(O)c3)n2)C(=O)CN1c1ccccc1Cl [Compound 9]
- Cl−/HCO3− exchange, % of WT-hPDS (H723R-pendrin; 3 uM): A (A=Exchange % greater than 50%)
- Cl−/HCO3− exchange, % of WT-hPDS (H723R-pendrin; 10 uM): A (A=Exchange % greater than 50%)
- Surface expression % of H723R-hPDS relative to WT-hPDS (Glycosylated form pendrin) (H723R-hPDS; 3 uM): A (A=Expression % greater than 100%)
- Surface expression % of H723R-hPDS relative to WT-hPDS (Glycosylated form pendrin) (H723R-hPDS; 10 uM): A (A=Expression % greater than 100%)

Compound: NC1=C(c2cncc(-c3ccc(O)c(O)c3)n2)C(=O)CN1CC1CCCC1 [Compound 18]
- Cl−/HCO3− exchange, % of WT-hPDS (H723R-pendrin; 3 uM): A (A=Exchange % greater than 50%)
- Cl−/HCO3− exchange, % of WT-hPDS (H723R-pendrin; 10 uM): A (A=Exchange % greater than 50%)
- Surface expression % of H723R-hPDS relative to WT-hPDS (Glycosylated form pendrin) (H723R-hPDS; 3 uM): A (A=Expression % greater than 100%)
- Surface expression % of H723R-hPDS relative to WT-hPDS (Glycosylated form pendrin) (H723R-hPDS; 10 uM): A (A=Expression % greater than 100%)

Compound: COc1cc(-c2nccc(C3=C(N)N(CC4CCCC4)CC3=O)n2)ccc1O [Compound 105]
- Cl−/HCO3− exchange, % of WT-hPDS (H723R-pendrin; 3 uM): A (A=Exchange % greater than 50%)
- Cl−/HCO3− exchange, % of WT-hPDS (H723R-pendrin; 10 uM): A (A=Exchange % greater than 50%)
- Surface expression % of H723R-hPDS relative to WT-hPDS (Glycosylated form pendrin) (H723R-hPDS; 3 uM): A (A=Expression % greater than 100%)
- Surface expression % of H723R-hPDS relative to WT-hPDS (Glycosylated form pendrin) (H723R-hPDS; 10 uM): A (A=Expression % greater than 100%)
